EC50 and Emax data for two molecules are collected here from patent publication US20230265151A1, “GIP/GLP1 CO-AGONIST COMPOUNDS” (priority 2020, published 2023).

Read-outs that look alike come from different tables or passages of the source. Where only a bound is given, the exact number is not on record here.

Common to all, as to format: cell-based
One experiment addresses hGLP-1R (Homo sapiens, UniProt P43220). The experiment can be described thus: Functional cAMP formation (HTRF) in HEK-293 clonal cells expressing hGLP-1R, 0.1% bovine casein, without or with 1.0% human serum albumin. Set-up: expressed in transfected cells. Particulars: for EC50: geometric mean, read-out: hGLP-1R EC50, nM (SEM, n); for Emax: read-out: hGLP-1R Emax, % ± SEM. The gist of the method: (§1)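 Cells were stimulated with peptide for 30 min at 37° C, then intracellular cAMP was measured by competitive HTRF (665/620 nm ratio) and converted to nM using a cAMP standard curve. Relative EC50 and Emax came from four-parameter logistic fits of percent maximal response against peptide concentration.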
In general terms: Cyclic AMP is a second messenger, typically raised through Gs and lowered through Gi signalling.

For a further experiment, the target named is T1, hGIPR (Homo sapiens, UniProt P48546).
T1 construct: expressed in transfected cells
T1 sequence (P48546 22-466): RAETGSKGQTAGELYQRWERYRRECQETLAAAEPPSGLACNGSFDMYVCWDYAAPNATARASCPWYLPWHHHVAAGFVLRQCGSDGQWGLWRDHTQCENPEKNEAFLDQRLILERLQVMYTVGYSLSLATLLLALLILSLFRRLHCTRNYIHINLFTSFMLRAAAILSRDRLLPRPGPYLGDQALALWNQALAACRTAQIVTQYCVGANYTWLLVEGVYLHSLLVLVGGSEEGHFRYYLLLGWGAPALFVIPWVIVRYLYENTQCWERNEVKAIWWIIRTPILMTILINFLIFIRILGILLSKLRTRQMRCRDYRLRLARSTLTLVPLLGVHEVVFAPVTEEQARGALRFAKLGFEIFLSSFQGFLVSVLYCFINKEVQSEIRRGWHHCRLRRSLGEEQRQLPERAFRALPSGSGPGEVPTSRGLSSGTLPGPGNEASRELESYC
In words: Functional cAMP formation (HTRF) in HEK-293 clonal cells expressing hGIPR, 0.1% bovine casein, without or with 1.0% human serum albumin. The note with it: for EC50: geometric mean, read-out: hGIPR EC50, nM (SEM, n); for Emax: read-out: hGIPR Emax, % ± SEM. The gist of the method:
as §1

The target of the next experiment is T2, hGCGR (Homo sapiens, UniProt P47871).
T2 construct: expressed in transfected cells
In words: Functional cAMP formation (HTRF) in HEK-293 clonal cells expressing hGCGR, 0.1% bovine casein, without or with 1.0% human serum albumin. The note with it: geometric mean, read-out: hGCGR EC50, nM (SEM, n). Summed up:
as §1

[1] abbreviates: cAMP, incubated at 37° C., 0.1% bovine casein (no human serum albumin).
The mark [2] stands for this setting: 0.1% bovine casein and 1.0% human serum albumin, 37° C.
Setting [3] is: HEK293, 0.1% bovine casein and 1.0% human serum albumin, 37° C., percent of maximal response to GIP(1-42)NH2.
Where [4] appears, read: HEK293, percent of maximal response to GIP(1-42)NH2, 37° C., 0.1% bovine casein, arithmetic mean.

Chain of hGLP-1R (P43220 24-463): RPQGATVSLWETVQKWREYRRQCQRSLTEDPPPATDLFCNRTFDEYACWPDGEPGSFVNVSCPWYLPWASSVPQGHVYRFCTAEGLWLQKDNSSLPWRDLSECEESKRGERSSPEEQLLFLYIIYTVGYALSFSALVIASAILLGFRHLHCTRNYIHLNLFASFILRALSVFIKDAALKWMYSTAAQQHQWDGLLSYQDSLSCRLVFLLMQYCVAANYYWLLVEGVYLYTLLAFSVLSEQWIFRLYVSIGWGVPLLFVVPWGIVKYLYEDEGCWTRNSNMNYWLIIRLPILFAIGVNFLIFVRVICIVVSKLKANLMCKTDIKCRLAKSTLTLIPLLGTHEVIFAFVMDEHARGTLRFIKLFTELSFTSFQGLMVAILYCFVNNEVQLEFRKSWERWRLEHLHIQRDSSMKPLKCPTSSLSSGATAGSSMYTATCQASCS
T2 sequence (P47871 26-477): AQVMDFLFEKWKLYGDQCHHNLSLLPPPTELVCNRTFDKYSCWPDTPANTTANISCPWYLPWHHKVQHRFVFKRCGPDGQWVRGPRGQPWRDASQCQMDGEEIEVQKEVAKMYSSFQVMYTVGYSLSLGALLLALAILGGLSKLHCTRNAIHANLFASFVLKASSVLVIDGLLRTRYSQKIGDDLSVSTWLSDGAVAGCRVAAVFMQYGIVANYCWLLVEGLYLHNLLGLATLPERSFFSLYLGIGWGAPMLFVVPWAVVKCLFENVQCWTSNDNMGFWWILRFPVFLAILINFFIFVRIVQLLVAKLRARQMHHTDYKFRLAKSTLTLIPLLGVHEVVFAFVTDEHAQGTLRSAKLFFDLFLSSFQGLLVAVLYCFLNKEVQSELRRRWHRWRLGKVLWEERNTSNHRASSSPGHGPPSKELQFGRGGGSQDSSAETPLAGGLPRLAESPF

For orientation: EC50 means the midpoint of the concentration-response curve. Usually Emax stands for the greatest response seen or fitted, relative to the assay's reference. Regarding `CC[C@H](C)[C@H](NC(=O)[C@H](CC(C)C)NC(=O)[C@](C)(Cc1ccc(O)cc1)NC(=O)[C@@H](CCC(=O)O)NC(=O)[C@@H](NC(=O)[C@H](Cc1ccccc1)NC(=O)[C@H](CCC(=O)O)NC(=O)C(C)(C)NC(=O)[C@H](CCC(N)=O)NC(=O)[C@H](C)NC(=O)[C@H](CCCCNC(=O)COCCOCCNC(=O)COCCOCCNC(=O)CC[C@H](NC(=O)CCCCCCCCCCCCC(=O)O)C(=O)O)NC(=O)[C@H](CCCN)NC(=O)[C@H](CC(=O)O)NC(=O)[C@H](CC(C)C)NC(=O)[C@](C)(CC(C)C)NC(=O)[C@@H](NC(=O)[C@H](CO)NC(=O)[C@](C)(Cc1ccccc1F)NC(=O)[C@H](CC(=O)O)NC(=O)[C@H](CO)NC(=O)[C@@H](NC(=O)[C@](C)(Cc1ccccc1F)NC(=O)[C@@H](NC(=O)CNC(=O)[C@H](CCC(=O)O)NC(=O)C(C)(C)NC(=O)[C@@H](N)Cc1ccc(O)cc1)[C@@H](C)O)[C@@H](C)O)[C@@H](C)CC)[C@@H](C)CC)C(=O)N[C@@H](CCC(=O)O)C(=O)NCC(=O)NCC(=O)N[C@@H](CCCCNC(=O)COCCOCCNC(=O)COCCOCCNC(=O)CC[C@H](NC(=O)CCCCCCCCCCCCC(=O)O)C(=O)O)C(=O)N[C@@H](CO)C(=O)N[C@@H](CO)C(=O)NCC(=O)N[C@@H](C)C(=O)N1CCC[C@H]1C(=O)N1CCC[C@H]1C(=O)N1CCC[C@H]1C(=O)N[C@@H](CO)C(N)=O` [Example 87], the EC50 is 1.34 nM at hGLP-1R (setting [1]), 4.84 nM on hGIPR (setting [2]), > 9950 nM at hGCGR (setting [2]) and > 9950 nM on hGCGR (setting [1]). Further, the Emax on hGIPR (setting [3]) was found to be 89.2%; on hGIPR (setting [4]), 84.7%.

For the molecule `CC[C@H](C)[C@H](NC(=O)[C@H](CC(C)C)NC(=O)[C@](C)(Cc1ccc(O)cc1)NC(=O)[C@@H](CCC(=O)O)NC(=O)[C@@H](NC(=O)[C@](C)(Cc1ccccc1)NC(=O)[C@H](CCC(=O)O)NC(=O)C(C)(C)NC(=O)[C@H](CCC(N)=O)NC(=O)[C@H](C)NC(=O)[C@H](CCCCNC(=O)COCCOCCNC(=O)COCCOCCNC(=O)CC[C@H](NC(=O)CCCCCCCCCCCCC(=O)O)C(=O)O)NC(=O)[C@H](CCCN)NC(=O)[C@H](CC(=O)O)NC(=O)[C@H](CC(C)C)NC(=O)[C@](C)(CC(C)C)NC(=O)[C@@H](NC(=O)[C@H](CO)NC(=O)[C@H](Cc1ccncc1)NC(=O)[C@H](CC(=O)O)NC(=O)[C@H](CO)NC(=O)[C@@H](NC(=O)[C@](C)(Cc1ccccc1)NC(=O)[C@@H](NC(=O)CNC(=O)[C@H](CCC(=O)O)NC(=O)C(C)(C)NC(=O)[C@@H](N)Cc1ccc(O)cc1)[C@@H](C)O)[C@@H](C)O)[C@@H](C)CC)[C@@H](C)CC)C(=O)N[C@@H](CCC(=O)O)C(=O)NCC(=O)NCC(=O)N[C@@H](CCCCNC(=O)COCCOCCNC(=O)COCCOCCNC(=O)CC[C@H](NC(=O)CCCCCCCCCCCCC(=O)O)C(=O)O)C(=O)N[C@@H](CO)C(=O)N[C@@H](CO)C(=O)NCC(=O)N[C@@H](C)C(=O)N1CCC[C@H]1C(=O)N1CCC[C@H]1C(=O)N1CCC[C@H]1C(=O)N[C@@H](CO)C(N)=O` [Example 47], the EC50 at hGLP-1R (setting [2]) was 1670 nM; at hGIPR (setting [1]) it was 0.0138 nM; on hGCGR (setting [2]), > 9950 nM; at hGCGR (setting [1]), > 9950 nM. For the same molecule, the Emax at hGLP-1R (HEK293, 0.1% bovine casein and 1.0% human serum albumin, 37° C., percent of maximal response to GLP-1(7-36)NH2) worked out at 134%; at hGLP-1R (HEK293, percent of maximal response to GLP-1(7-36)NH2, 37° C., 0.1% bovine casein, arithmetic mean) it was 87.1 ± 14.1%; on hGIPR (setting [3]) it was 85.6%; at hGIPR (setting [4]) it was 89.8 ± 1.2%.
